Measurements reported in ChEMBL document CHEMBL1140026 (Bioorg Med Chem Lett, 2007).

Biological target: cGMP-specific 3',5'-cyclic phosphodiesterase (Homo sapiens, UniProt O76074)
Experiment: Inhibition of PDE5

| Compound | IC50 |
| --- | --- |
| CCCOc1ccc(S(=O)(=O)N2CCC(CCC(=O)O)CC2)cc1-c1nc2c(CCC)nn(C)c2c(=O)[nH]1 | 0.0501 nM |
| CCCc1nn(C)c2c(=O)[nH]c(-c3cc(S(=O)(=O)N4CCN(C)CC4)cc4c3OCC4)nc12 | 240 nM |
| CCCc1nn(C)c2c(=O)[nH]c(-c3cc(S(=O)(=O)N4CCN(C)CC4)cc4c3OCCO4)nc12 | 7.94 nM |
| CCCc1nn(C)c2c(=O)[nH]c(-c3cc(S(=O)(=O)N4CCN(CCO)CC4)cc4c3OCC4)nc12 | 204 nM |
| CCCc1nn(C)c2c(=O)[nH]c(-c3cc(S(=O)(=O)N4CCN(CCO)CC4)cc4c3OCO4)nc12 | 331 nM |
| CCCc1nn(C)c2c(=O)[nH]c(-c3cc(S(=O)(=O)N4CCN(CCO)CC4)cc4c3OCCO4)nc12 | 6.31 nM |
| CCCc1nn(C)c2c(=O)[nH]c(-c3cc(S(=O)(=O)N4CCC(C(=O)O)CC4)ccc3OCC)nc12 | 0.513 nM |
| CCCc1nn(C)c2c(=O)[nH]c(-c3cc(S(=O)(=O)N4CCC(CC(=O)O)CC4)ccc3OCC)nc12 | 0.331 nM |
| CCCOc1ccc(NC(=O)CCC)cc1-c1nc2c(CCC)nn(C)c2c(=O)[nH]1 | 0.269 nM |
| CCCc1nn(C)c2c(=O)[nH]c(-c3cc(S(=O)(=O)N4CCN(CCC(=O)O)CC4)ccc3OCC)nc12 | 0.407 nM |
| CCCOc1ccc(NC(=O)C(C)C)cc1-c1nc2c(CCC)nn(C)c2c(=O)[nH]1 | 0.347 nM |
| CCCOc1ccc(S(=O)(=O)N2CCC(CC(=O)O)CC2)cc1-c1nc2c(CCC)nn(C)c2c(=O)[nH]1 | 0.11 nM |
| CCCOc1ccc(NC(C)=O)cc1-c1nc2c(CCC)nn(C)c2c(=O)[nH]1 | 0.813 nM |
| CCCc1nn(C)c2c(=O)[nH]c(-c3cc(S(=O)(=O)N4CCC(CCCC(=O)O)CC4)ccc3OCC)nc12 | 0.219 nM |
| CCCc1nn(C)c2c(=O)[nH]c(-c3cc(S(=O)(=O)N4CCC(CCC(=O)O)CC4)ccc3OCC)nc12 | 0.151 nM |
| CCCOc1ccc(NC(=O)CC)cc1-c1nc2c(CCC)nn(C)c2c(=O)[nH]1 | 0.38 nM |
| CCCOc1ccc(S(=O)(=O)N2CCC(C(=O)O)CC2)cc1-c1nc2c(CCC)nn(C)c2c(=O)[nH]1 | 0.151 nM |
| CCCOc1ccc(S(=O)(=O)N2CCC(CCCC(=O)O)CC2)cc1-c1nc2c(CCC)nn(C)c2c(=O)[nH]1 | 0.501 nM |
| CCCOc1ccc(NC(=O)C2CCCCC2)cc1-c1nc2c(CCC)nn(C)c2c(=O)[nH]1 | 0.417 nM |
| CCCc1nn(C)c2c(=O)[nH]c(-c3cc(S(=O)(=O)N4CCN(CCO)CC4)cc4c3OCCC4)nc12 | 12.6 nM |
